The values below come from patent US20200178534A1, “INDUCTION OF FLORAL DEVELOPMENT IN PLANTS” (priority 2016, published 2020).

Assay [1] relates to Arabidopsis thaliana, ecotype Columbia (Col-0) and attps7 knockout mutants. Briefly: Height of the flowering inflorescence at 26 DAS after spraying T6P signalling precursor. As to conditions: versus water control. It counts as in vivo. The protocol:
Right hand bars in each panel represent plants treated with 1 mM oNPE. Left hand bars in each panel represent plants treated with water (controls). […] This reflects the advancement of flowering by oNPE.
(§1) Seeds of Arabidopsis thaliana, ecotype Columbia (Col-0) and attps7 knockout mutants were surface-sterilized with 70% of ethanol for 2 min and 75% household bleach for 7 min, and grown on nutrient agar media (0.5×Murashige and Skoog plus Gamborg's vitamins (Sigma). 0.5% Sucrose and 0.7% Agar) in Petri plates. Seeds on the Petri plates were placed in a growth chamber (22° C., 150 μmol m^−2 s^−1, 16-h day). Seven days after plating, seedlings were transferred to pots of soil containing Rothamsted standard compost mix and full nutrition (one seedling per pot). Forty plants per A. thaliana type (n=40 Col-0, n=40 TPS7_3, n=40 TPS7_4.15) were grown at 22CC, 250 μmol m^−2 s^−1 irradiance, 16-h day. Eight days after sowing (DAS) plants were sprayed with 0.5 ml 1 mM oNPE-T6P (ortho-nitrphenyl)ethyl trehalose 6-phosphate dissolved in distilled water with the addition of 0.1% of Tween20 during the middle of the mid-photoperiod. Twenty-four hours after spraying (9 DAS), plants sprayed with 1 mM oNPE-T6P were exposed to 600 μmol m^−2 s^−1 irradiance for 1 h to release T6P from oNPE-T6P. Spraying was repeated at 12 and 16 DAS.
Height of the flowering inflorescence was then measured at 26 DAS. […]

The test system is the same in assay [2]. As to the kind of experiment: Appearance of flower buds / flowering time after spraying T6P signalling precursor. It counts as in vivo. Set-up: key to flower bud had appeared (individual plant N): X: shown as crosses in highlighted boxes. The note with it: for flower bud had appeared (individual plant N): 1 mM spray, day 5 after spraying. The protocol: In both cases it is possible to advance the development of the flowering inflorescence by several centimetres and advance flowering time by up to a week.
as §1
First, the appearance of the flower bud was quicker in plants sprayed with oNPE-T6P than with water.

Take `CC(OP(=O)(OC[C@H]1O[C@H](O[C@H]2O[C@H](CO)[C@@H](O)[C@H](O)[C@H]2O)[C@H](O)[C@@H](O)[C@@H]1O)OC(C)c1ccccc1[N+](=O)[O-])c1ccccc1[N+](=O)[O-]` (stereo partly drawn) [oNPE-T6P, 6-O-bis[1-(2-nitrophenyl)-ethoxyphosphoryl]-D-trehalose]: the “height of the flowering inflorescence” value in assay [1] (Col-0, 1 mM) is listed as “taller inflorescences”; in assay [1] (tps7, 1 mM), “taller inflorescences”. Also, the “flower bud had appeared (individual plant N)” value in assay [2] (Col-0), in assay [2] (TPS7_3 mutant) and in assay [2] (TPS7_4.15 mutant) was “X” each time. Besides, the “appearance of the flower bud compared with water” value in assay [2] (plants sprayed with 1 mM, versus water) is “quicker”.
